# Measurements reported in patent US20090220528A1, “Stimulation of Toll-Like Receptors on T Cells” (THE TRUSTEES OF THE UNIVERISTY OF PENNSYLVANIA CNETER FOR …, priority 2005, published 2009).
# Columns and labels:
# activated CD4+ T cells = test: Absolute live CD4+ T cell counts by FACS; format: cell-based, mouse; details: up to 72 hours following activation with plate-bound anti-CD3 plus anti-CD28; relative to untreated cultures (FIG. 3C)
# Experimental: Following activation, purified CD4^+ T cells were washed twice in PBS and replated in culture medium at 10^6/ml. Cultures were left untreated or treated with either TLR ligands and/or inhibitors for indicated times and concentrations. Following incubation, CD4^+ T cells were washed twice in PBS/2% FBS and stained with CD4-allophycocyanin monoclonal antibody and 7-aminoactinomycin D (7-AAD; BD PharMingen) or annexin (BD PharMingen) and survival was assessed by exclusion of either of these two stains. For absolute live cell counts 50,000 CD45.1^+ splenocytes labeled with anti-CD45.1-PE monoclonal antibody (A20; BD PharMingen) were also added to stained CD4^+ T cell sample FACS tubes just before FACS analysis. Live CD4^+ T cell counts were calculated by taking the ratio of the number of CD4^+CD45.1^−7-ADD^− events collected to the number CD45.1^+ events collected and multiplying by 50,000. Proliferation was measured by CFSE dye dilution as previously described (Wells et al., 1997 J. Clin. Invest. 100:3173).
# Since percentage survival measurements may not be reflective of viable CD4^+ T cell numbers in vitro, absolute live cell number counts were quantified for periods up to 72 hours following activation of FACS sorted CD4^+ T cells with plate-bound anti-CD3 plus anti-CD28 monoclonal antibodies (FIGS. 3C).
# [1] = test system: activated DO11.10 CD4+ T cells; test: Adoptive transfer and ex vivo proliferation analysis; format: in vivo, mouse
# Experimental: Five million purified DO11.10 CD4^+ T cells were activated by pOVA-pulsed APCs (1 μg/ml), purified with magnetic beads, treated with poly(I:C) (90 μg/ml), CpG DNA (30 μM), LPS (100 ng/ml), or left untreated for 16 hours, washed in PBS twice, and then adoptively transferred into BALB/c hosts. At day 30, spleen and peripheral lymph nodes were harvested and stained with anti-CD4 monoclonal antibody and the DO11.10 clonotypic monoclonal antibody KJI-26. Survival of activated DO11.10 CD4^+ T cells in each host was determined by FACS analysis and is expressed as a percent with respect to the total number of CD4^+ T cells found in either the host spleen or lymph nodes along with a mean (thick line) for each treatment group. […] [^3H]Thymidine was added to cultures for an additional 8 hour and read on a beta scintillation counter and is expressed as a mean for each treatment group ±SEM.
# To address this question, DO11.10 CD4^+ T cells were first activated with pOVA-pulsed APCs, purified by magnetic beads, treated with TLR ligands for 16 hours, washed, and then adoptively transferred into congenic BALB/c hosts. Survival and ex vivo proliferative responses were assessed 30 days later (FIGS. 5A and 5B). […]
substance,measurement,setting,value
poly(I:C),live CD4+ T cell numbers,activated CD4+ T cells,concordant increases
same,increase in percentage of recovered DO11.10 CD4+ T cells in host spleen,"[1]; day 30 after adoptive transfer into BALB/c hosts, cells treated 16 hours before transfer, vs LPS-treated or untreated cells (FIG. 5A)",~2 fold
same,increase in proliferative response to pOVA of splenic CD4+ T cells,"[1]; ex vivo, day 30, vs hosts that received LPS-treated or untreated cells (FIG. 5B)",2 fold
